# ChEMBL document CHEMBL1201862, “PubChem BioAssay data set” (2004)
#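 Method: 48-hour compound exposure of cells in 96-well plates, five concentrations, linear interpolation of endpoints. GI50: concentration for 50% inhibition of growth.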 Active and inactive are the calls of the source. Cut-off read from the data, not from the text of the source: active = GI50 up to about 1.1 µM and inactive = higher.
# Tests used:
# Experiment in all cases: DTP human tumour cell line panel, 48 h
# [1] = test system: 786-0
# [2] = test system: A498
# [3] = test system: A549
# [4] = test system: ACHN
# [5] = test system: CAKI-1
# [6] = test system: CCRF-CEM
# [7] = test system: COLO 205
# [8] = test system: DLD-1
# [9] = test system: DMS-114
# [10] = test system: DMS-273
# [11] = test system: EKVX
# [12] = test system: HCC 2998
# [13] = test system: HCT-15
# [14] = test system: HOP-18
# [15] = test system: HOP-62
# [16] = test system: HOP-92
# [17] = test system: HT-29
# [18] = test system: IGROV-1
# [19] = test system: K562
# [20] = test system: KM-20L2
# [21] = test system: KM12
# [22] = test system: LOX IMVI
# [23] = test system: LXFL 529
# [24] = test system: M14
# [25] = test system: M19-MEL
# [26] = test system: MOLT-4
# [27] = test system: Malme-3M
# [28] = test system: NCI-H23
# [29] = test system: NCI-H460
# [30] = test system: NCI-H522
# [31] = test system: OVCAR-3
# [32] = test system: OVCAR-4
# [33] = test system: OVCAR-5
# [34] = test system: OVCAR-8
# [35] = test system: RPMI-8226
# [36] = test system: RXF 393
# [37] = test system: SF-268
# [38] = test system: SF-295
# [39] = test system: SF-539
# [40] = test system: SK-MEL-28
# [41] = test system: SK-MEL-2
# [42] = test system: SK-MEL-5
# [43] = test system: SK-OV-3
# [44] = test system: SN12C
# [45] = test system: SNB-19
# [46] = test system: SNB-75
# [47] = test system: SNB-78
# [48] = test system: SW-620
# [49] = test system: TK-10
# [50] = test system: U-251
# [51] = test system: UACC-257
# [52] = test system: UACC-62
# [53] = test system: UO-31
# [54] = test system: XF498
# [55] = test system: HCT-116
# [56] = test system: HL-60
# [57] = test system: NCI-H226
# [58] = test system: SR
smiles,measurement,setting,value
N=C(N)NS(=O)(=O)c1ccc(NC(=O)c2cccc3c(Nc4ccc(S(N)(=O)=O)cc4)c4ccccc4nc23)cc1,GI50,[1],> 100 µM (inactive)
same,GI50,[2],> 100 µM (inactive)
same,GI50,[3],> 100 µM (inactive)
same,GI50,[4],> 100 µM (inactive)
same,GI50,[5],> 100 µM (inactive)
same,GI50,[6],> 100 µM (inactive)
same,GI50,[7],> 100 µM (inactive)
same,GI50,[8],> 100 µM (inactive)
same,GI50,[9],> 100 µM (inactive)
same,GI50,[10],> 100 µM (inactive)
same,GI50,[11],> 100 µM (inactive)
same,GI50,[12],> 100 µM (inactive)
same,GI50,[13],> 100 µM
same,GI50,[14],> 100 µM (inactive)
same,GI50,[15],> 100 µM (inactive)
same,GI50,[16],> 100 µM (inactive)
same,GI50,[17],> 100 µM (inactive)
same,GI50,[18],> 100 µM (inactive)
same,GI50,[19],> 100 µM (inactive)
same,GI50,[20],> 100 µM (inactive)
same,GI50,[21],> 100 µM (inactive)
same,GI50,[22],> 100 µM (inactive)
same,GI50,[23],> 100 µM (inactive)
same,GI50,[24],> 100 µM (inactive)
same,GI50,[25],> 100 µM (inactive)
same,GI50,[26],> 100 µM (inactive)
same,GI50,[27],> 100 µM (inactive)
same,GI50,[28],> 100 µM (inactive)
same,GI50,[29],> 100 µM (inactive)
same,GI50,[30],> 100 µM (inactive)
same,GI50,[31],> 100 µM (inactive)
same,GI50,[32],> 100 µM (inactive)
same,GI50,[33],> 100 µM (inactive)
same,GI50,[34],> 100 µM (inactive)
same,GI50,[35],> 100 µM (inactive)
same,GI50,[36],> 100 µM (inactive)
same,GI50,[37],> 100 µM (inactive)
same,GI50,[38],> 100 µM (inactive)
same,GI50,[39],> 100 µM (inactive)
same,GI50,[40],> 100 µM (inactive)
same,GI50,[41],> 100 µM (inactive)
same,GI50,[42],> 100 µM (inactive)
same,GI50,[43],> 100 µM (inactive)
same,GI50,[44],> 100 µM (inactive)
same,GI50,[45],> 100 µM (inactive)
same,GI50,[46],> 100 µM (inactive)
same,GI50,[47],> 100 µM (inactive)
same,GI50,[48],> 100 µM (inactive)
same,GI50,[49],> 100 µM (inactive)
same,GI50,[50],> 100 µM (inactive)
same,GI50,[51],> 100 µM (inactive)
same,GI50,[52],> 100 µM (inactive)
same,GI50,[53],> 100 µM (inactive)
same,GI50,[54],> 100 µM (inactive)
CC(=O)OCC1OC(n2cc([N+](=O)[O-])c(=O)[nH]c2=O)C(OC(C)=O)C(OC(C)=O)C1OC(C)=O (stereo not drawn),GI50,[1],> 100 µM (inactive)
same,GI50,[2],> 100 µM (inactive)
same,GI50,[3],> 100 µM (inactive)
same,GI50,[4],> 100 µM (inactive)
same,GI50,[5],> 100 µM (inactive)
same,GI50,[6],> 100 µM (inactive)
same,GI50,[7],> 100 µM (inactive)
same,GI50,[8],> 100 µM (inactive)
same,GI50,[9],> 100 µM (inactive)
same,GI50,[10],> 100 µM (inactive)
same,GI50,[11],> 100 µM (inactive)
same,GI50,[12],> 100 µM (inactive)
same,GI50,[55],> 100 µM (inactive)
same,GI50,[13],> 100 µM
same,GI50,[56],> 100 µM (inactive)
same,GI50,[14],43.2 µM (inactive)
same,GI50,[15],> 100 µM (inactive)
same,GI50,[16],> 100 µM (inactive)
same,GI50,[17],> 100 µM (inactive)
same,GI50,[18],> 100 µM (inactive)
same,GI50,[19],> 100 µM (inactive)
same,GI50,[20],> 100 µM (inactive)
same,GI50,[21],> 100 µM (inactive)
same,GI50,[22],> 100 µM (inactive)
same,GI50,[23],> 100 µM (inactive)
same,GI50,[24],> 100 µM (inactive)
same,GI50,[25],> 100 µM (inactive)
same,GI50,[26],> 100 µM (inactive)
same,GI50,[27],> 100 µM (inactive)
same,GI50,[57],42.2 µM (inactive)
same,GI50,[28],> 100 µM (inactive)
same,GI50,[29],> 100 µM (inactive)
same,GI50,[30],> 100 µM (inactive)
same,GI50,[31],> 100 µM (inactive)
same,GI50,[32],> 100 µM (inactive)
same,GI50,[33],> 100 µM (inactive)
same,GI50,[34],> 100 µM (inactive)
same,GI50,[35],> 100 µM (inactive)
same,GI50,[36],76 µM (inactive)
same,GI50,[37],> 100 µM (inactive)
same,GI50,[38],> 100 µM (inactive)
same,GI50,[40],> 100 µM (inactive)
same,GI50,[41],> 100 µM (inactive)
same,GI50,[42],> 100 µM (inactive)
same,GI50,[43],> 100 µM (inactive)
same,GI50,[44],> 100 µM (inactive)
same,GI50,[45],> 100 µM (inactive)
same,GI50,[46],54.6 µM (inactive)
same,GI50,[58],> 100 µM (inactive)
same,GI50,[48],> 100 µM (inactive)
same,GI50,[49],> 100 µM (inactive)
same,GI50,[50],> 100 µM (inactive)
same,GI50,[51],> 100 µM (inactive)
same,GI50,[52],> 100 µM (inactive)
same,GI50,[53],> 100 µM (inactive)
same,GI50,[54],> 100 µM (inactive)
Clc1cc(Cl)c2c(Cl)cc(Cl)c3c2c1N=S=N3,GI50,[1],> 100 µM (inactive)
same,GI50,[2],6.68 µM (inactive)
same,GI50,[3],> 100 µM (inactive)
same,GI50,[5],> 100 µM (inactive)
same,GI50,[6],52.1 µM (inactive)
same,GI50,[7],> 100 µM (inactive)
same,GI50,[8],83.8 µM (inactive)
same,GI50,[9],> 100 µM (inactive)
same,GI50,[10],> 100 µM (inactive)
same,GI50,[11],> 100 µM (inactive)
same,GI50,[12],> 100 µM (inactive)
same,GI50,[55],> 100 µM (inactive)
same,GI50,[13],67.1 µM
same,GI50,[56],94.6 µM (inactive)
same,GI50,[14],> 100 µM (inactive)
same,GI50,[16],> 100 µM (inactive)
same,GI50,[17],> 100 µM (inactive)
same,GI50,[18],> 100 µM (inactive)
same,GI50,[19],> 100 µM (inactive)
same,GI50,[20],> 100 µM (inactive)
same,GI50,[21],> 100 µM (inactive)
same,GI50,[22],> 100 µM (inactive)
same,GI50,[23],> 100 µM (inactive)
same,GI50,[24],> 100 µM (inactive)
same,GI50,[25],> 100 µM (inactive)
same,GI50,[26],2.86 µM (inactive)
same,GI50,[27],> 100 µM (inactive)
same,GI50,[57],> 100 µM (inactive)
same,GI50,[28],> 100 µM (inactive)
same,GI50,[30],> 100 µM (inactive)
same,GI50,[31],> 100 µM (inactive)
same,GI50,[32],> 100 µM (inactive)
same,GI50,[33],> 100 µM (inactive)
same,GI50,[34],> 100 µM (inactive)
same,GI50,[35],> 100 µM (inactive)
same,GI50,[36],> 100 µM (inactive)
same,GI50,[37],> 100 µM (inactive)
same,GI50,[38],> 100 µM (inactive)
same,GI50,[39],> 100 µM (inactive)
same,GI50,[40],> 100 µM (inactive)
same,GI50,[41],> 100 µM (inactive)
same,GI50,[42],> 100 µM (inactive)
same,GI50,[43],> 100 µM (inactive)
same,GI50,[45],> 100 µM (inactive)
same,GI50,[46],> 100 µM (inactive)
same,GI50,[47],> 100 µM (inactive)
same,GI50,[48],> 100 µM (inactive)
same,GI50,[49],> 100 µM (inactive)
same,GI50,[50],> 100 µM (inactive)
same,GI50,[51],> 100 µM (inactive)
same,GI50,[52],62.5 µM (inactive)
same,GI50,[53],> 100 µM (inactive)
same,GI50,[54],12.9 µM (inactive)
